Key:
[1] = system: retinas from Rho^P23H mice at P12; experiment: P12 Rho^P23H retinal explants, rod degeneration (ONL nuclei, Gnb1); assay type: cell-based, mouse; settings: 1 μM, vs DMSO
Source text: The effect of PR1 on Rho expression in adult rods might have potential as a way to slow the degeneration of these cells in dominant forms of retinitis pigmentosa, like Rho^P23H. In this disease, the affected individuals express a mutant form of rhodopsin that is likely inappropriately processed and ultimately leads to the death of the rods. […] The majority of rod cell death in the Rho^P23H transgenic line occurs between P14 and P21. Therefore, explants of retinas from Rho^P23H mice at P12 were made and treated the explants with 1 μM PR1 or DMSO (FIG. 9H). After 6 days in vitro, the retinas were processed for histology. The number of nuclei were counted in the ONL of each retina in the central region 100 μm from the optic nerve head. […] Gnb1 expression was also monitored as another measure of rod photoreceptor preservation because this is not directly affected by PR1 and thus serves as a surrogate for rod number. […]
RNA was isolated using TRIzol (Invitrogen) and cDNA was synthesized using the iScript cDNA synthesis kit (Bio-Rad) following an intervening DNase treatment with RQ1 RNase-free DNase (Promega). SSO Fast (Bio-Rad) was used for quantitative real-time PCR. For analysis, values were normalized to Gapdh and ΔΔCt between DMSO and compound-treated samples was expressed as percent of DMSO treated controls (100*2^ΔΔCt). […]

[2] = system: rhodopsin; experiment: IP injection of P2 or P3 pups, rhodopsin expression by qPCR; assay type: in vivo, mouse; settings: pups IP 20 μl of 50 mM at P2 or P3, sacrificed the following day, vs DMSO
Experimental: Nr2e3 is expressed in developing rods prior to birth, and so to test whether PR1 could affect prenatal rod development, wild type timed-pregnant dams were injected with 100 μl of 50 mM PR1 at E14 and E17, during peak S cone photoreceptor genesis and the onset of Nr2e3 expression (FIG. 7F). The pups were sacrificed at P0 and their retinas collected for staining and for quantifying S opsin+ photoreceptors. […] To determine if PR1 affected rhodopsin expression in developing rods in vivo, pups were injected with 20 μl of 50 mM PR1 or an equal volume of DMSO at P2 or P3 (FIG. 7I). The pups were sacrificed the following day and analyzed rhodopsin expression by qPCR.
RNA was isolated using TRIzol (Invitrogen) and cDNA was synthesized using the iScript cDNA synthesis kit (Bio-Rad) following an intervening DNase treatment with RQ1 RNase-free DNase (Promega). SSO Fast (Bio-Rad) was used for quantitative real-time PCR. For analysis, values were normalized to Gapdh and ΔΔCt between DMSO and compound-treated samples was expressed as percent of DMSO treated controls (100*2^ΔΔCt). Two-way Student's t-tests were performed on ΔCt values.
For intravitreal injections, adult mice (>P21) were anesthetized with isoflurane and injected with 1.5 μl of 10 mM PR1 using a 32-gauge Hamilton needle. […]

[3] = system: Explants from P12 Nrl-eGFP mice; experiment: P12 Nrl-eGFP mouse retinal explants, 5 DIV, immunofluorescence and EdU; assay type: cell-based
Experimental: Previous loss of function genetic data has shown that Nr2e3 is required for rod photoreceptor development, but it is not known whether there is a continuing requirement for Nr2e3 in mature rods. […] To further examine the effects of PR1 at these late developmental stages, the effects of PR1 on P12 retinal explants by immunohistochemical analysis were studied (FIG. 8A). Explants from P12 Nrl-eGFP mice were cultured for 5 days in either DMSO or 1 μM PR1 containing media, and then fixed and processed for immunofluorescent labeling with anti-rhodopsin and anti-S opsin antibodies.
To determine if PR1 affects retinal cells other than photoreceptors, bipolar cells (PKCα, Chx10), amacrine cells (HuCD), and Muller glia (Sox2) were quantified in explants treated with DMSO or 1 μM PR1 for 5 DIV. […] EdU (5-ethynyl-2′-deoxyuridine) was added to the cultures to determine whether PR1 might have a similar effect.
Intact retinas without RPE from mice of various strains and ages as indicated were explanted on 0.4 μm pore tissue culture inserts (Millipore) as previously described (Ueki, Y., et al., P53 is required for the developmental restriction in Muller glial proliferation in mouse retina. Glia, 2012. 60(10): p. 1579-89; Ueki, Y., et al., A transient wave of BMP signaling in the retina is necessary for Muller glial differentiation. Development, 2015. 142(3): p. 533-43. Full media (DMEM/F12 (1:1) containing 1% dialyzed FBS, 1% Pen Strep, 0.3% D+ glucose, 2% B27, and 1% N2) changes were performed every other day and small molecules were used at 0.1 μM to 10 μM. Where indicated, EdU (Invitrogen) was included in the media at 5 μg/mL and visualized by staining with the Click-iT EdU Alexa Fluor kit (Thermo Fisher Scientific). For human retinal explant cultures, tissue from 113 day post-conception fetuses was obtained from the University of Washington Birth Defects Laboratory and explanted on 0.4 μm pore tissue culture inserts (Millipore) in media (Neurobasal A with 1% FBS, 1% Pen Strep, 1% N2, 1% B27) containing 10 μM Photoregulin1 or an equal volume of DMSO.
Retinal explants or eyecups were fixed in 4% PFA in 1×PBS for 20 minutes at room temperature and then cryoprotected in 30% sucrose in 1×PBS overnight at 4° C. Samples were embedded in OCT (Sakura Finetek), frozen on dry ice, and then sectioned at 14-16 μm on a cryostat (Leica). Slides were blocked with a solution containing 10% Normal Horse Serum (Vector Labs) and 0.5% Triton X-100 (Sigma-Aldrich) in 1×PBS for 1 hour at room temperature and then stained overnight at 4° C. with primary antibodies diluted in blocking solution. Slides were washed three times with 1×PBS the following day and then incubated in secondary antibodies (Life Technologies) diluted in blocking solution for 2 hours at room temperature, stained with DAPI (Sigma-Aldrich), washed, and coverslipped using Fluoromount-G (SouthernBiotech). An Olympus FluoView FV1000 was used for confocal microscopy.

With `Cc1cc(C)cc(NC(=O)CCc2nc3sc4c(c3c(=O)[nH]2)CCCC4)c1` [PR1, N-(3,5-dimethylphenyl)-3-(4-oxo-5,6,7,8-tetrahydro-3H-[1]benzothiolo[2,3-d]pyrimidin-2-yl)propanamide] the “number of rod photoreceptors (nuclei) in the ONL, 100 μm from the optic nerve head” value ([1]; 6 days in vitro) was “nearly twice”, the “Gnb1 expression (surrogate for rod number)” value [1] was “significantly more Gnb1 expression” and the “rhodopsin expression by qPCR” value [2] was “decreased rhodopsin”. For the same compound, the “number of S opsin+ cells in the ONL” value ([3]; P12 explants, 1 μM, 5 days) was “increase in the number of S opsin+ cells”, the “rhodopsin staining in Nrl-GFP-positive rods” value ([3]; P12 explants, 1 μM, 5 days) was “dramatic decrease in rhodopsin staining” and the “number of EdU labeled cells” value ([3]; P12 explants, 5 DIV, EdU in media) was “increase in the number of EdU labeled cells”. The “migration of the Muller glial (Sox2+) nuclei into the ONL” value ([3]; explants, 1 μM, 5 DIV) was “increase in the migration” and the “bipolar cells (PKCα, Chx10), amacrine cells (HuCD), and Muller glia (Sox2)” value ([3]; explants, 1 μM, 5 DIV, vs DMSO) was “No differences”.
